How the values were obtained:
human NaV1.3 = molecular target: T1, human NaV1.3 (Homo sapiens, UniProt Q9NY46); experiment: FRET assay (EFS, FDSS) on HEK293 cells expressing human NaV1.3 channels; format: cell-based; conditions: FRET assay, HEK293 cells expressing human NaV1.3; read-out: IC50 against Nav1.3
T1 construct: expressed in transfected cells; host or cells: HEK293
Outline: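 Membrane potential in HEK293 cells stably expressing human NaV1.3, read by FRET (CC2-DMPE 10 µM / DiSBAC2(3) 15 µM with 0.555 mM VABSC-1) after electrical field stimulation, in HEPES-buffered saline pH 7.4. Compounds added after dye loading at room temperature. IC50 from normalized 440 nm fluorescence ratios.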

human Nav1.7 = molecular target: T2, human Nav1.7 (Homo sapiens, UniProt Q15858); experiment: FRET assay (EFS, FDSS) on CHO cells expressing human NaV1.7 channels; format: cell-based; conditions: FRET assay, CHO cells expressing human NaV1.7; read-out: IC50 against Nav1.7
T2 construct: expressed in transfected cells; host or cells: CHO
Method: This screen was used to determine the effects of compounds on human NaV1.3, human Nav1.7, and human Nav1.5 channels, utilising electrical field stimulation (EFS) system in 96-well plate format on FDSS (Hamamatsu Photonics) platform. The change of membrane potential was monitored with FRET dye pair, oxonol (DiSBAC2(3)) and coumarin (CC2-DMPE).
CHO cells expressing human NaV1.7 channels were grown in T225 flasks, in a 5% CO2 humidified incubator to about 80% confluence. Media composition consisted of HAM/F12 with Glutamax I, 10% FCS, 100 units/ml Penicillin and 100 microgram/ml Hygromycin.
Protocol: • Seeded each cell lines (1×10^5 cells/well) into poly-D-lysine coated 96-well plates prior to experimentation. • Incubated at 37° C. in 5% CO2 for 24 hours. • Washed each well with assay buffer (140 mM NaCl, 4.5 mM KCl, 10 mM D-Glucose, 2 mM CaCl2, 1 mM MgCl2, 10 mM HEPES, pH 7.4 adjusted with NaOH) twice. • Added 1st loading solution containing 10 microM CC2-DMPE and 0.06% Pluronic F-127 in assay buffer. • Incubated the plate at room temperature in dark for 1 hour. • Removed 1st loading solution and added 2nd loading solution containing 15 microM DiSBAC2(3), 0.555 mM VABSC-1 and 0.004% Pluronic F-127 in assay buffer. • Placed the plate under the dark at room temperature for 25 minutes. • Added compound solutions into the assay plate. • Set the assay plate in FDSS and placed an EFS device on the plate. • Measured EFS-induced fluorescent response by FDSS.
The data were analyzed and reported as normalized ratios of intensities measured at […]. The process of calculating these ratios was performed as follows:
[formula] This analysis was performed using a computerized specific program designed for FDSS generated data. Fluorescence ratio values were plotted using XLfit to determine an IC50 value for each compound.

T1 sequence (Q9NY46 whole entry): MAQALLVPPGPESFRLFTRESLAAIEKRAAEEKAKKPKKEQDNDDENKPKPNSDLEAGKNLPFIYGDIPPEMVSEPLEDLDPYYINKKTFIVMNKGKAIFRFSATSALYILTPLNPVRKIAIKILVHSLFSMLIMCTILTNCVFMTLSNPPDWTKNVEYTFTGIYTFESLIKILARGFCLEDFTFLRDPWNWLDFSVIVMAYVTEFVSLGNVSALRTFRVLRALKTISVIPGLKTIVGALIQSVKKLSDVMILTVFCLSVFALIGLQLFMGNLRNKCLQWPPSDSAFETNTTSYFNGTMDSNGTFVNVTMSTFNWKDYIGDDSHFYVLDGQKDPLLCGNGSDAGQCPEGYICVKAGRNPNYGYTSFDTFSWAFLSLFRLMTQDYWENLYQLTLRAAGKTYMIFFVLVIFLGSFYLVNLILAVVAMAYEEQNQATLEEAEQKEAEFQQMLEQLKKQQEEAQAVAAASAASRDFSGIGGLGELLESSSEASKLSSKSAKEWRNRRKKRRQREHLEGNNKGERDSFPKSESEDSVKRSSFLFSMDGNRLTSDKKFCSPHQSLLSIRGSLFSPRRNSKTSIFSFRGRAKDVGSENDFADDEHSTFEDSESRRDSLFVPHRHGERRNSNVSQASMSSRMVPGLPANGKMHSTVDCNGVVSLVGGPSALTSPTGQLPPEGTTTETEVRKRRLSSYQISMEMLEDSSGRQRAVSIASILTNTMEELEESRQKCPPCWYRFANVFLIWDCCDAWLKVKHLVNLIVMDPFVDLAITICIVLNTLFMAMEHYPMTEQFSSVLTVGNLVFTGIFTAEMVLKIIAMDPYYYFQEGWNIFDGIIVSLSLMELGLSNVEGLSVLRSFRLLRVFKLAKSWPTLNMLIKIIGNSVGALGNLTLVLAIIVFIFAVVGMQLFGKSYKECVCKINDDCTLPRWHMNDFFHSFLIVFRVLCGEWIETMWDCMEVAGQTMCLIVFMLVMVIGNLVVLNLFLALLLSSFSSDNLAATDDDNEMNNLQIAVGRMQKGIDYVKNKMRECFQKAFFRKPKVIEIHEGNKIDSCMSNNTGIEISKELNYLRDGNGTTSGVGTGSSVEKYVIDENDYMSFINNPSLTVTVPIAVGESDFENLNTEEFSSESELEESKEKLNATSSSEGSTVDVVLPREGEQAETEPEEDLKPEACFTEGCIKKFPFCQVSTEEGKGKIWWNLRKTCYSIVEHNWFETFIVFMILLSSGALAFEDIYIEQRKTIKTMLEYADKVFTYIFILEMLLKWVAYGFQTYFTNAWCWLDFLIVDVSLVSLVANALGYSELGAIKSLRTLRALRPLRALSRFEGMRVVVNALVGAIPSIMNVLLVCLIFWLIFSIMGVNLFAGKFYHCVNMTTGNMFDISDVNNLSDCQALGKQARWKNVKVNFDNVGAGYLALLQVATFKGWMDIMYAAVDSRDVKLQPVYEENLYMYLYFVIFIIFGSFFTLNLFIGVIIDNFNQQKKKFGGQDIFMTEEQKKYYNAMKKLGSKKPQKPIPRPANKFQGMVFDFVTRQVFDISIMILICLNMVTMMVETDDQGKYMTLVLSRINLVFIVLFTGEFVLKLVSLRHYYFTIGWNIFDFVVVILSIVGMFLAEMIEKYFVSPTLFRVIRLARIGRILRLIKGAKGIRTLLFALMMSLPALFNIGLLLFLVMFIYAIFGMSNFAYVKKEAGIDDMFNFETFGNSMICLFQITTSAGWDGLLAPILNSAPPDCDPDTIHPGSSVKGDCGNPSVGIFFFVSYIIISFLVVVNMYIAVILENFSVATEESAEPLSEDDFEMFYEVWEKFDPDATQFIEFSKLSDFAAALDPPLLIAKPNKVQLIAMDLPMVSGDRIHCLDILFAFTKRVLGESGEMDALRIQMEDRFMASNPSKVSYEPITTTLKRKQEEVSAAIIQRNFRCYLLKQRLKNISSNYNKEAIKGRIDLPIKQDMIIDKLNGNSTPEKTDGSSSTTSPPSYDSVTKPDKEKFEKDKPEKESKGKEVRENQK
T2 sequence (Q15858 whole entry): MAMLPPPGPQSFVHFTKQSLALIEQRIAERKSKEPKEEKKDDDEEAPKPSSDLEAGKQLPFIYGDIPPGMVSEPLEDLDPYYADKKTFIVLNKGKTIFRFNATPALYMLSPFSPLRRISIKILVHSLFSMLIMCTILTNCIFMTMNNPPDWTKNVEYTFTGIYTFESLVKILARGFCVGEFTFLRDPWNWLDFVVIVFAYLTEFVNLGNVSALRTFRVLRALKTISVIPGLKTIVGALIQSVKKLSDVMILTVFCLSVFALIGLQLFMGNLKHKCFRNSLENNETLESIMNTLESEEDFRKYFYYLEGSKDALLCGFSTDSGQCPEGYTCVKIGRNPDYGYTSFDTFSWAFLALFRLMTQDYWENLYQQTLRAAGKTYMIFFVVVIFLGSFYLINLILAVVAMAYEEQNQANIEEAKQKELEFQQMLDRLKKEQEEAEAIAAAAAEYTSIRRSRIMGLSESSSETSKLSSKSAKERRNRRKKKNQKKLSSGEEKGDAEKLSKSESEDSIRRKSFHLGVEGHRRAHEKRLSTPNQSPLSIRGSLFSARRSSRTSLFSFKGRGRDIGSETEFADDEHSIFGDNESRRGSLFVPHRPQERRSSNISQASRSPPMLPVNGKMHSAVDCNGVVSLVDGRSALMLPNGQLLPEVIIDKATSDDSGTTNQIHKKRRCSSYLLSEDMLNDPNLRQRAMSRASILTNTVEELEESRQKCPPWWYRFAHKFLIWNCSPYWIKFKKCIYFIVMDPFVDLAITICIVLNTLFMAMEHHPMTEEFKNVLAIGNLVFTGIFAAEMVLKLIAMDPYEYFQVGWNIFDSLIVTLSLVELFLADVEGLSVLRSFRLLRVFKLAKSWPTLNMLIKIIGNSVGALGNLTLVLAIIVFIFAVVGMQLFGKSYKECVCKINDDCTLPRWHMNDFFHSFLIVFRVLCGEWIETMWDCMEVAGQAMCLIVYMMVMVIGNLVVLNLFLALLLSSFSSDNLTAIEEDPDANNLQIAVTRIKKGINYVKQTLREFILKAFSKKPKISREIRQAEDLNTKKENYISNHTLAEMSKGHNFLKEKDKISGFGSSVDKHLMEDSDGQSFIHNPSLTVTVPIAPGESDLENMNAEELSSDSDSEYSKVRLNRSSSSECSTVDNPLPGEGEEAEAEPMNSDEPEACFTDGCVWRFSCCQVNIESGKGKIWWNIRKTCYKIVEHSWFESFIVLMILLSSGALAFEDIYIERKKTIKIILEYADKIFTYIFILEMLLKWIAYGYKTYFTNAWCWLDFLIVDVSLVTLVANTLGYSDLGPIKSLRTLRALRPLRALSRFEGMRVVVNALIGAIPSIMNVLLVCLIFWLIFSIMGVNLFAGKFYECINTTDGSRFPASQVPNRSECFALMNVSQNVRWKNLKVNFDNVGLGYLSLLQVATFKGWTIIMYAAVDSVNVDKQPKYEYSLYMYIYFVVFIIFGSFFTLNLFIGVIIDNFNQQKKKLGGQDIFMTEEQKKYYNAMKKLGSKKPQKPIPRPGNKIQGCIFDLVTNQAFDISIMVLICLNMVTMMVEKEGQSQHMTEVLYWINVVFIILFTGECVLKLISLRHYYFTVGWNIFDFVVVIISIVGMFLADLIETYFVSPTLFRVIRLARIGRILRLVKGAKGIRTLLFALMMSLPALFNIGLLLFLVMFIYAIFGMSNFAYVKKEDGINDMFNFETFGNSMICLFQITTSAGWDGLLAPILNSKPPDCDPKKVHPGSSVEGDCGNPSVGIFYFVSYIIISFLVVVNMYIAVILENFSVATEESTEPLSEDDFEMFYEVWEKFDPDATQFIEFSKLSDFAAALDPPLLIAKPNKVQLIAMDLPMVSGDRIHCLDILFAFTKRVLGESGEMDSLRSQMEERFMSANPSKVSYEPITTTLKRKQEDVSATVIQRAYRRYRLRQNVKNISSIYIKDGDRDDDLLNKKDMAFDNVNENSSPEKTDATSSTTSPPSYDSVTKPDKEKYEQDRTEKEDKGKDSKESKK

Row | Compound | IC50 (human NaV1.3) [µM] | IC50 (human Nav1.7) [µM]
1 | O=C(Cn1nc2ccccc2n1)N1CCN(c2cc(OCC(F)(F)F)ncn2)CC1 [Example 146, 2-(2H-benzo[d][1,2,3]triazol-2-yl)-1-(4-(6-(2,2,2-trifluoroethoxy)pyrimidin-4-yl)piperazin-1-yl)ethanone] | < 3 | < 3
2 | CC(C)Oc1cc(N2CCN(C(=O)c3csc(-c4ccccc4)n3)CC2)ncn1 [Example 165, (4-(6-isopropoxypyrimidin-4-yl)piperazin-1-yl)(2-phenylthiazol-4-yl)methanone] | < 3 | < 3
3 | CC(C)COc1cc(N2CCN(C(=O)c3csc(Cc4ccccc4)n3)CC2)ncn1 [Example 167, (2-benzylthiazol-4-yl)(4-(6-isobutoxypyrimidin-4-yl)piperazin-1-yl)methanone] | < 3 | < 3
4 | CC(C)COc1cc(N2CCN(C(=O)COCc3ccc(F)cc3)CC2)ncn1 [Example 168, 2-((4-fluorobenzyl)oxy)-1-(4-(6-isobutoxypyrimidin-4-yl)piperazin-1-yl)ethanone] | < 3 | < 3
5 | Cc1c(C(=O)N2CCN(c3cc(OCC(C)C)ncn3)CC2)cnn1-c1ccc(F)cc1 [Example 169, (1-(4-fluorophenyl)-5-methyl-1H-pyrazol-4-yl)(4-(6-isobutoxypyrimidin-4-yl)piperazin-1-yl)methanone] | < 3 | < 3
6 | Cc1nc(-c2cccc(C(=O)N3CCN(c4cc(OCC(C)C)ncn4)CC3)c2)cs1 [Example 187, (4-(6-isobutoxypyrimidin-4-yl)piperazin-1-yl)(3-(2-methylthiazol-4-yl)phenyl)methanone] | < 3 | < 3
7 | Cc1nc(-c2ccccc2)oc1C(=O)N1CCN(c2cc(OCC(C)C)ncn2)CC1 [Example 208, (4-(6-isobutoxypyrimidin-4-yl)piperazin-1-yl)(4-methyl-2-phenyloxazol-5-yl)methanone] | < 3 | < 3
8 | Cn1nc(C(=O)N2CCN(c3cc(OCC(F)(F)F)ncn3)CC2)c2cc(F)ccc21 [Example 212, (5-fluoro-1-methyl-1H-indazol-3-yl)(4-(6-(2,2,2-trifluoroethoxy)pyrimidin-4-yl)piperazin-1-yl)methanone] | < 3 | < 3
9 | CC(C)COc1cc(N2CCN(C(=O)c3csc(-c4ccccc4)n3)CC2)ncn1 [Example 213, (4-(6-isobutoxypyrimidin-4-yl)piperazin-1-yl)(2-phenylthiazol-4-yl)methanone] | < 3 | < 3
10 | CCn1nc(C(=O)N2CCN(c3cc(OCC(F)(F)F)ncn3)CC2)cc1C(F)(F)F [Example 229, (1-ethyl-5-(trifluoromethyl)-1H-pyrazol-3-yl)(4-(6-(2,2,2-trifluoroethoxy)pyrimidin-4-yl)piperazin-1-yl)methanone] | < 3 | < 3
11 | O=C(c1csc(-c2ccccn2)n1)N1CCN(c2cc(OCC(F)(F)F)ncn2)CC1 [Example 244, (2-(pyridin-2-yl)thiazol-4-yl)(4-(6-(2,2,2-trifluoroethoxy)pyrimidin-4-yl)piperazin-1-yl)methanone] | < 3 | < 3
